According to patent US10273218B2, “BCL-3 inhibitors” (University College Cardiff Consultants Limited, priority 2014, dated 2019):

Columns and labels:
[1] = tested on: human colorectal cell lines (SW480); test: mouse Model 4 (tumour growth at transplantation site), SW480; format: in vivo, mice; conditions: 3.5 mg/kg intraperitoneal injection daily; SW480 subcutaneous; caliper tumour volume
Experimental: (§1) In all experiments, each compound was administered by intraperitoneally at 3.5 mg/kg.
(§2) Another model (Model 4) studied the effect of the compound's ability to inhibit the growth of tumour cells at the transplantation site. Human tumour cell lines were injected subcutaneously into recipient mice, followed 2 days later by single daily intraperitoneal injections of a compound (3.5 mg/kg in 1% DMSO) for the entire course of the experiment. Tumour burden was monitored longitudinally for up to 12 weeks in vivo by palpation and caliper measurements of tumour volume, and subsequently histology performed on tumours at the end of the experiment.
(§3) Model 4 tested the effect of compounds of the application to inhibit the growth of tumour cells at the transplantation site. Human tumour cell lines were injected subcutaneously into recipient mice, followed 2 days later by single daily intraperitoneal injections of Bcl3 inhibitor (3.5 mg/kg in 1% DMSO) for the entire course of the experiment. Tumour burden was monitored longitudinally for up to 12 weeks in vivo by palpation and caliper measurements of tumour volume, and subsequently histology performed on tumours at the end of the experiment.
FIGS. 6 and 7 show the comparative effect of compound 12 (3.5 mg/kg intraperitoneal injection) on Model 4 in human breast cancer (MDA-MB-231) and human colorectal cell lines (SW480), respectively.

[2] = tested on: MDA-MB-231-Luc highly metastatic human breast cancer cells; test: in vivo metastasis mouse model, disease free survival; design: species or system Nude mice; conditions: 3.5 mg/Kg once daily for 10 days; MDA-MB-231-Luc i.v.; monitored up to 49 days
Experimental: Nude mice are injected i.v. with 200,000 highly metastatic human breast cancer cells expressing luciferase (MDA-MB-231-Luc) then are given a compound of Formula (I) or Formula (Ia) once daily for about 10 days and are monitored for tumours by total body scan using Xenogen-IVIS. Mice with a luciferase signal above background in repeated scans in any part of their torso are scored as having metastatic disease. Total light emission in the abdominal region is quantified at time points up to 49 days post surgery and plotted as mean total light yield.
Nude mice were injected i.v. with 200,000 highly metastatic human breast cancer cells expressing luciferase (MDA-MB-231-Luc) then given 3.5 mg/Kg of compound 12, reference compound A, or Reference compound B once daily for 10 days and monitored for tumours by total body scan using Xenogen-IVIS. Mice with a luciferase signal above background in repeated scans in any part of their torso were scored as having metastatic disease. Total light emission in abdominal region was quantified at time points up to 49 days post surgery and plotted as mean total light yield. Control n=12, Reference compound A n=10, Reference compound B n=4; compound 12 n=4.

[3] = tested on: human breast cancer (MDA-MB-231); test: mouse Model 4 (tumour growth at transplantation site), MDA-MB-231; format: in vivo, mice; conditions: 3.5 mg/kg intraperitoneal injection daily; MDA-MB-231 subcutaneous; caliper tumour volume; listed as compound 12
Experimental: as §1, §2, §3
FIGS. 6 and 7 show the comparative effect of compound 12 (3.5 mg/kg intraperitoneal injection) on Model 4 in human breast cancer (MDA-MB-231) and human colorectal cell lines (SW480), respectively. […]

COc1ccc(C(=O)Nc2ccccc2C(=O)NCCN2CCOCC2)c(F)c1 [Compound 12, 2-fluoro-4-methoxy-N-(2-((2-morpholinoethyl)carbamoyl)phenyl) benzamide]
average tumour growth at the transplantation site [1]: significant reductions in average tumour growth
disease free survival [2]: 100%
tumour growth at the transplantation (xenograft) site [3]: significant reductions in average tumour growth
